Measured values: ChEMBL document CHEMBL1201862, “PubChem BioAssay data set” (2004)
Where “and” joins values, the source holds several entries; their conditions need not be identical. Equal entries are not always repeated.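 Briefly, cells in 96-well plates were exposed to five compound concentrations for 48 h, and endpoints were estimated by linear interpolation. GI50 is the concentration that inhibits growth by half.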 Calls of active or inactive are those of the source. No stated cut-off is given here; in the data, active = GI50 up to about 1.1 µM and inactive = higher.

What was measured:
Test in all cases: growth of human tumour cells (NCI), 48 h
[1] = tested on: SR
[2] = tested on: SN12C
[3] = tested on: SK-MEL-5
[4] = tested on: CCRF-CEM
[5] = tested on: U-251
[6] = tested on: NCI-H226
[7] = tested on: UO-31
[8] = tested on: OVCAR-3
[9] = tested on: OVCAR-5
[10] = tested on: HL-60
[11] = tested on: SK-MEL-2
[12] = tested on: LOX IMVI
[13] = tested on: OVCAR-4
[14] = tested on: K562
[15] = tested on: RPMI-8226
[16] = tested on: A498
[17] = tested on: HOP-62
[18] = tested on: MDA-N
[19] = tested on: T47D
[20] = tested on: MCF7

| Structure (SMILES) | GI50 [1] | GI50 [2] | GI50 [3] | GI50 [4] | GI50 [5] | GI50 [6] | GI50 [7] | GI50 [8] | GI50 [9] | GI50 [10] | GI50 [11] | GI50 [12] | GI50 [13] | GI50 [14] | GI50 [15] | GI50 [16] | GI50 [17] | GI50 [18] | GI50 [19] | GI50 [20] |
| --- | --- | --- | --- | --- | --- | --- | --- | --- | --- | --- | --- | --- | --- | --- | --- | --- | --- | --- | --- | --- |
| CN(c1ccccc1)c1c(Cl)c(=O)oc2c1ccc1occc12 | 44 µM (inactive) | > 100 µM (inactive) | > 100 µM (inactive) | 64.7 µM (inactive) | > 100 µM (inactive) | > 100 µM (inactive) | > 100 µM (inactive) | > 100 µM (inactive) | > 100 µM (inactive) | 15.6 µM (inactive) | > 100 µM (inactive) | 97.3 µM (inactive) | > 100 µM (inactive) | 51.2 µM (inactive) | 86.9 µM (inactive) | > 100 µM (inactive) | – | – | – | – |
| C=CCCn1nc(-c2ccccc2)oc1=O | > 100 µM (inactive) | > 100 µM (inactive) | > 100 µM (inactive) | > 100 µM (inactive) | > 100 µM (inactive) | > 100 µM (inactive) | > 100 µM (inactive) | > 100 µM (inactive) | > 100 µM (inactive) | > 100 µM (inactive) | > 100 µM (inactive) | > 100 µM (inactive) | > 100 µM (inactive) | > 100 µM (inactive) | – | > 100 µM (inactive) | > 100 µM (inactive) | – | – | – |
| CN=[S+]([O-])(c1ccccc1)c1ccccc1 | > 100 µM (inactive) | > 100 µM (inactive) | > 100 µM (inactive) | > 100 µM (inactive) | > 100 µM (inactive) | > 100 µM (inactive) | > 100 µM (inactive) | > 100 µM (inactive) | > 100 µM (inactive) | > 100 µM (inactive) | > 100 µM (inactive) | > 100 µM (inactive) | > 100 µM (inactive) | > 100 µM (inactive) | > 100 µM (inactive) | > 100 µM (inactive) | > 100 µM (inactive) | – | – | – |
| CC(C)(C)C=C=C(C(C)(C)C)P(=O)(O)O | > 100 µM (inactive) | > 100 µM (inactive) | > 100 µM (inactive) | – | > 100 µM (inactive) | > 100 µM (inactive) | – | > 100 µM (inactive) | > 100 µM (inactive) | > 100 µM (inactive) | > 100 µM (inactive) | > 100 µM (inactive) | > 100 µM (inactive) | > 100 µM (inactive) | < 0.01 µM (active) | > 100 µM (inactive) | > 100 µM (inactive) | > 100 µM (inactive) | > 100 µM (inactive) | – |
| O=C(c1ccc(Cl)cc1Cl)N(C(=O)N1CCC(c2ccccc2)CC1)c1ccccc1 | 24.3 µM (inactive) | > 100 µM (inactive) | 37.3 µM (inactive) | 13.8 µM (inactive) | > 100 µM (inactive) | > 100 µM (inactive) | > 100 µM (inactive) | > 100 µM (inactive) | > 100 µM (inactive) | – | > 100 µM (inactive) | > 100 µM (inactive) | – | 34.4 µM (inactive) | 47.9 µM (inactive) | 97.7 µM (inactive) | > 100 µM (inactive) | – | 53.7 µM (inactive) | 72.4 µM (inactive) |
| CC(C)(CCl)NC(=O)c1cccc(C(=O)NC(C)(C)CCl)n1 | > 100 µM (inactive) | > 100 µM (inactive) | > 100 µM (inactive) | > 100 µM (inactive) | > 100 µM (inactive) | > 100 µM (inactive) | > 100 µM (inactive) | > 100 µM (inactive) | > 100 µM (inactive) | > 100 µM (inactive) | > 100 µM (inactive) | > 100 µM (inactive) | > 100 µM (inactive) | > 100 µM (inactive) | > 100 µM (inactive) | > 100 µM (inactive) | > 100 µM (inactive) | – | – | – |
| CCOC1=C/C(=N\Nc2ccc([N+](=O)[O-])cc2)CCC1 | 4.53 µM (inactive) | 29.9 µM (inactive) | 18.9 µM (inactive) | – | 19.3 µM (inactive) | 41.9 µM (inactive) | 12.1 µM (inactive) | 29.9 µM (inactive) | 42.4 µM (inactive) | 13.6 µM (inactive) | 21.5 µM (inactive) | 8.77 µM (inactive) | 13.8 µM (inactive) | 18.9 µM (inactive) | 14.9 µM (inactive) | 26.3 µM (inactive) | 37.5 µM (inactive) | – | – | 18.3 µM (inactive) |
| COc1cc([C@@H]2c3cc4c(cc3[C@@H](OC(=O)c3cccc(N)c3)C3COC(=O)[C@@H]32)OCO4)cc(OC)c1O (stereo partly drawn) | 0.565 µM (active) | 3.42 µM (inactive) | 0.536 µM (active) | 2.18 µM (inactive) | 5.85 µM (inactive) | 1.15 µM (inactive) | 5.26 µM (inactive) | 34.6 µM (inactive) | 17.9 µM (inactive) | 2.7 µM (inactive) | 14.9 µM (inactive) | 4.47 µM (inactive) | 42.1 µM (inactive) | 2.02 µM (inactive) | 3.86 µM (inactive) | 0.649 µM (active) | 2.32 µM (inactive) | – | – | – |
| N#C/C(=C\c1ccc(O)cc1)C(N)=O | – | > 100 µM (inactive) | > 100 µM (inactive) | > 100 µM (inactive) | > 100 µM (inactive) | > 100 µM (inactive) and 69.7 µM (inactive) | 61.5 µM (inactive) and 91.6 µM (inactive) | > 100 µM (inactive) | > 100 µM (inactive) | > 100 µM (inactive) and 57.7 µM (inactive) | > 100 µM (inactive) | > 100 µM (inactive) | > 100 µM (inactive) | > 100 µM (inactive) | > 100 µM (inactive) | > 95.7 µM (inactive) and 57.3 µM (inactive) | > 100 µM (inactive) | – | – | > 100 µM (inactive) |
| O=c1c2ccccc2nnn1-c1n[nH]c2ccccc12 | – | > 100 µM (inactive) | 37.8 µM (inactive) | > 100 µM (inactive) | > 100 µM (inactive) | – | > 100 µM (inactive) | > 100 µM (inactive) | 13.9 µM (inactive) | – | > 100 µM (inactive) | – | > 100 µM (inactive) | – | > 100 µM (inactive) | > 100 µM (inactive) | > 100 µM (inactive) | – | > 100 µM (inactive) | > 100 µM (inactive) |
| Cc1cc(Br)c(N2C3=C(CC4=C2CCCC4=O)C(=O)CCC3)c(Br)c1 | 36.6 µM (inactive) | 74.1 µM (inactive) | 38.7 µM (inactive) | 10.3 µM (inactive) | 32.9 µM (inactive) | 72.1 µM (inactive) | 60.5 µM (inactive) | 42.9 µM (inactive) | > 100 µM (inactive) | 32.7 µM (inactive) | – | 23.7 µM (inactive) | 93.5 µM (inactive) | 13.2 µM (inactive) | 27.4 µM (inactive) | 94.8 µM (inactive) | – | – | – | 33.3 µM (inactive) |
| Nc1nc(N)c(/N=N/c2ccc(C(=O)O)c(O)c2)c(N)n1 | > 100 µM (inactive) | > 100 µM (inactive) | > 100 µM (inactive) | > 100 µM (inactive) | > 100 µM (inactive) | > 100 µM (inactive) | > 100 µM (inactive) | 10.4 µM (inactive) | > 100 µM (inactive) | – | > 100 µM (inactive) | > 100 µM (inactive) | 18.5 µM (inactive) | < 0.01 µM (active) | > 100 µM (inactive) | > 100 µM (inactive) | > 100 µM (inactive) | > 100 µM (inactive) | – | 61.4 µM (inactive) |
| O=c1c2cc(I)ccc2nc(-c2cccs2)n1/N=C/c1ccccc1 | 10.1 µM (inactive) | > 100 µM (inactive) | > 100 µM (inactive) | > 100 µM (inactive) | > 100 µM (inactive) | > 100 µM (inactive) | > 100 µM (inactive) | > 100 µM (inactive) | > 100 µM (inactive) | > 100 µM (inactive) | 0.536 µM (active) | > 100 µM (inactive) | > 100 µM (inactive) | 7.18 µM (inactive) | > 100 µM (inactive) | – | > 100 µM (inactive) | – | 80.5 µM (inactive) | > 100 µM (inactive) |
| CC1(C)CC2(C)CC1CC2O (stereo not drawn) | > 100 µM (inactive) | > 100 µM (inactive) | > 100 µM (inactive) | > 100 µM (inactive) | > 100 µM (inactive) | > 100 µM (inactive) | > 100 µM (inactive) | > 100 µM (inactive) | > 100 µM (inactive) | > 100 µM (inactive) | – | > 100 µM (inactive) | > 100 µM (inactive) | > 100 µM (inactive) | > 100 µM (inactive) | – | > 100 µM (inactive) | > 100 µM (inactive) | – | > 100 µM (inactive) |
| NC(=S)N/N=C(\CCC(=O)Nc1ccccc1[N+](=O)[O-])CC(=O)c1ccco1 | > 100 µM (inactive) | > 100 µM (inactive) | > 100 µM (inactive) | > 100 µM (inactive) | > 100 µM (inactive) | > 100 µM (inactive) | > 100 µM (inactive) | > 100 µM (inactive) | > 100 µM (inactive) | > 100 µM (inactive) | > 100 µM (inactive) | > 100 µM (inactive) | > 100 µM (inactive) | > 100 µM (inactive) | > 100 µM (inactive) | 49.3 µM (inactive) | > 100 µM (inactive) | – | – | – |
| COc1ccccc1C(O)(c1ccccc1)C(O)(c1ccccc1)c1ccccc1OC (stereo not drawn) | > 100 µM (inactive) | > 100 µM (inactive) | > 100 µM (inactive) | > 100 µM (inactive) | > 100 µM (inactive) | > 100 µM (inactive) | > 100 µM (inactive) | > 100 µM (inactive) | > 100 µM (inactive) | 9.82 µM (inactive) | > 100 µM (inactive) | > 100 µM (inactive) | > 100 µM (inactive) | > 100 µM (inactive) | > 24.4 µM (inactive) | > 100 µM (inactive) | > 100 µM (inactive) | – | – | – |
